From PubChem BioAssay (NCI) come the findings set out here.

Test systems include A549 NSCLC; CCRF-CEM leukemia; K-562 leukemia; XF 498 CNS; LXFL 529 NSCLC; HCC-2998 colon; DMS 273 small cell lung; HCT-116 colon; KM20L2 colon; DMS 114 small cell lung; DLD-1 colon; RXF-631 renal; SNB-78 CNS; HOP-18 NSCLC; M19-MEL melanoma; SN12K1 renal; P388 leukemia.
Holding throughout (experiment): NCI tumour cell line growth inhibition, 48 h

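Cells were grown in 96-well plates and exposed to each compound for 48 hours at five concentrations; endpoints were interpolated linearly between bracketing concentrations, or set to the highest concentration if not reached. The concentration for full growth arrest is given as TGI.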 Bounds are passed on as bounds.

`N/N=c1/nc2n(c3ncccc13)C=CNN2`: the TGI in the assay on A549 NSCLC, in the assay with CCRF-CEM leukemia, in the assay with K-562 leukemia, in the assay with XF 498 CNS, in the assay with LXFL 529 NSCLC and in the assay on HCC-2998 colon was above 100 µM throughout. Also, the TGI in the assay with DMS 273 small cell lung, in the assay with HCT-116 colon, in the assay on KM20L2 colon, in the assay on DMS 114 small cell lung, in the assay on DLD-1 colon and in the assay on RXF-631 renal was above 100 µM each time.

Turning to `O=C(Cc1ccccc1)NN1C(=O)C(Cl)C1c1ccc(Cl)cc1` (stereo unspecified), the TGI in the assay on A549 NSCLC, in the assay on CCRF-CEM leukemia, in the assay with K-562 leukemia, in the assay on XF 498 CNS, in the assay with LXFL 529 NSCLC and in the assay on SNB-78 CNS was above 100 µM throughout. The TGI in the assay with HCC-2998 colon, with DMS 273 small cell lung, in the assay on HCT-116 colon, in the assay on KM20L2 colon, with DMS 114 small cell lung and in the assay on DLD-1 colon was above 100 µM in each case. Besides, in the assay with HOP-18 NSCLC, the TGI is above 100 µM.

On to `C/C(=N/NC(=O)c1ccccc1S(N)(=O)=O)C(CN1CCCCC1)C(C1=C(O)C2C=CC=CC2OC1=O)c1ccccc1` (stereo unspecified), for which the TGI in the assay on A549 NSCLC is above 100 µM; in the assay on CCRF-CEM leukemia, 67.7 µM; in the assay with K-562 leukemia it was above 100 µM; with XF 498 CNS, above 100 µM; in the assay with LXFL 529 NSCLC it was above 100 µM; in the assay with SNB-78 CNS, above 100 µM. The TGI in the assay on HCT-116 colon, in the assay with KM20L2 colon, in the assay with DLD-1 colon, with HOP-18 NSCLC, with M19-MEL melanoma and in the assay on RXF-631 renal was above 100 µM throughout.

As for `NCCCCCC(CCN)SCC1OC(n2cnc3c(N)ncnc32)C(O)C1O` (stereo unspecified), the TGI is above 1500 µM in the assay with SN12K1 renal; above 1500 µM in the assay with A549 NSCLC; above 1500 µM in the assay on CCRF-CEM leukemia; above 1500 µM in the assay on P388 leukemia; above 1500 µM in the assay on K-562 leukemia; above 15 µM with XF 498 CNS. In addition, the TGI in the assay on SNB-78 CNS was above 1500 µM; in the assay with HCC-2998 colon it was above 1500 µM; in the assay on DMS 273 small cell lung, above 1090 µM; with HCT-116 colon it was above 1500 µM; in the assay on KM20L2 colon, above 1500 µM; in the assay with DMS 114 small cell lung, above 1500 µM. The TGI with DLD-1 colon and in the assay on M19-MEL melanoma was above 1500 µM in each case.
